Assay results: ChEMBL document CHEMBL1122826, “4-[2-(Di-n-propylamino)ethyl]-2(3H)-indolone: a prejunctional dopamine receptor agonist” (J Med Chem, 1985)

Target: Dopamine receptor
Test: Inhibitory activity against constrictor response to electrical stimulation in the isolated perfused rabbit ear artery(REA) expressing dopamine receptor
Set-up: species or system Oryctolagus cuniculus

Row | SMILES | EC50 [nM]
1 | CCCN(CCC)CCc1cccc(NC(C)=O)c1 | > 1000
2 | CCCN(CCC)CCc1cccc(O)c1 | 700
